Reference: patent US5470873A, “Diabetes prevention and treatment using gamma-pyrones” (University Technologies International, Inc., priority 1994, dated 1995)
Values joined by “and” are separate entries in the source; they are usually repeats but may differ in a detail not shown here. Equal values may be shown once. “Also recorded” adds a separate entry of the source.

Legend:
[1] = Prevention of clinical diabetes (glycosuria) in NOD mice; assay type: in vivo; conditions: observed to 35 weeks, incl. 15 weeks after cessation of treatment
Protocol: NOD mice were dosed with maltol to evaluate its effect on the pathogenesis of type I diabetes. Mice received 5 mg maltol/mouse every other day from age 2 weeks until they were 20 weeks old. Maltol extracted from ginseng as described in Example 2 was used for the first 10 weeks, then maltol purchased from Sigma Co., St. Louis, MO was used thereafter. The mice were kept until they were 35 weeks old. Urine glucose was measured at 3-day intervals from 10 to 35 weeks of age. Urinary glucose and ketone levels were determined using Diastix and Ketostix reagent slips (Miles, Ontario, Canada). Individual mice were classified as being diabetic on the basis of positive glycosuria^38. […] In contrast, 78% of age-matched control mice (22 mice) spontaneously developed autoimmune diabetes. At 35 weeks of age, fasting (8 hours of fasting) and non-fasting blood glucose levels were measured. Blood was obtained from the retro-orbital venous plexus of fasting and nonfasting NOD mice. Glucose levels were measured enzymatically by the glucose oxidase method with o-dianisidine dihydrochloride as the reactive dye ^39-41 . The mean nonfasting blood glucose level of 35 ICR mice (nondiabetic control mice; NOD mice were derived from ICR mice) was 149±27 mg/dl. Any non-fasting mouse with a blood glucose level greater than 230 mg/dl (3 SD above the mean) was scored as diabetic. The mean fasting blood glucose level of 38 ICR mice was 137±28 mg/dl. Any fasting mouse with a blood glucose level greater than 221 mg/dl (3 SD above the mean) was scored as diabetic.

pancreatic islets = experiment: Histologic changes of pancreatic islets (hematoxylin and eosin); assay type: in vivo, NOD mice; set-up: key to Diabetes: "+" indicates "yes"; "-" indicates "no"
Source text: Maltol-treated and untreated NOD mice were sacrificed and 25% of each pancreas was fixed in 6% Formalin. Paraffin-embedded sections were stained with hematoxylin and eosin and examined under an Olympus light microscope ^49. To see whether there are any histological differences between the pancreatic islets of DPD-treated and untreated NOD mice, the pancreatic islets of 35 week old mice were examined with the light microscope after staining with hematoxylin and eosin. […] The rest of their islets were rated as having either severe (22%), moderate (27%), mild (25%) or no (6%) insulitis. […] In addition, there were histopathological changes in their pancreatic islets that were rated as moderate (22% of examined islets), mild (30%) or as having no insulitis (15%).

[2] = Blood glucose levels in GK rats (NIDDM model), glucose tolerance test; assay type: in vivo
Protocol: To see whether DPD, alone or in combination with other modalities, had any effect on the control of blood glucose levels, GK rats were treated daily from 4 to 14 weeks of age with one of the following: At 14 weeks of age, glucose tolerance tests were performed by intraperitoneal injection of 2 mg glucose/gm body weight. Blood glucose levels were determined 60 minutes later using methods previously described^64-67. Rats receiving DPD alone were intubated daily with a 1.18 % (w/v) solution of DPD in PBS. At 4 weeks of age, rats received 0.5 ml of the 1.18% solution of DPD. This was increased by 0.1 ml/week so that rats at 14 weeks of age received 1.5 ml of the 1.18% solution of DPD. Control rats received the same volume of PBS only. Rats receiving OSA alone were intubated daily with an aqueous extract of OSA. The extract was prepared by adding 10% dried powdered OSA plant to boiling water, keeping the mixture at the boiling point in a sealed container for 3-4 hours, removing the supernatant, then cooling it for use in intubating the GK rats. This supernatant will be referred to as 10% OSA extract. At 4 weeks of age, rats received 0.5 ml of the 10% OSA extract. This was increased by about 0.15 ml/week so that rats at 14 weeks of age received 2.0 ml of the 10% OSA extract. Control rats received the same volume of PBS. […]

pancreatic beta cells = experiment: Destruction of pancreatic beta cells detected by fluorescein labelled anti-insulin antibody; assay type: in vivo, NOD mice; set-up: key to Diabetes: "+" indicates "yes"; "-" indicates "no"
Protocol: Fluorescein isothiocyanate-labelled anti-insulin antibody was prepared as described previously 45. Briefly, gamma globulin that was prepared by immunizing guinea pigs with glutaraldehyde polymerized porcine insulin and purified by Sephadex G-200 chromatography was purchased from Index Corp., Glenwood, Ill, USA. This material was labelled with FITC. Unconjugated FITC was removed by dialysis against 0.01M PBS (pH 7.5) and by gel filtration through a Sephadex G-25. The labelled gamma globulin was subsequently absorbed with acetone-treated mouse liver powder to eliminate nonspecific fluorescence. Pancreatic sections (from 25% of each pancreas) prepared from maltol-treated and untreated NOD mice were stained with FITC-labelled anti-insulin antibody and examined under a fluorescent microscope as described elsewhere 47.48. Briefly, pancreatic sections on the slides were flooded with FITC-labelled anti-insulin antibody and incubated in a humidity chamber overnight at 4° C. in the dark. The slides were then washed in three changes of cold PBS for a total of 20 min to remove any unattached antibody, mounted with Elvanol and observed with an Olympus fluorescence microscope ^45. As it is difficult to determine whether the lymphocytes observed in the pancreatic islets are contributing to beta cell destruction, another method was used to determine whether beta cells from maltol-treated or untreated NOD mice were destroyed or not. Sections of pancreatic islets were stained with a fluorescein-labelled anti-insulin antibody and the number of insulin-containing beta cells in the islets was estimated.

[3] = individual DPD-treated non-diabetic NOD mice (animal 1-5), 35 weeks
[4] = 30% to 69% of beta cell destruction, individual DPD-treated NOD mice (animal 1-5)
[5] = less than 30% of beta cell destruction, individual DPD-treated NOD mice (animal 1-5)
[6] = no destruction of beta cells, individual DPD-treated NOD mice (animal 1-5)
[7] = over 70% of beta cell destruction, individual DPD-treated NOD mice (animal 1-5)

Cc1occc(=O)c1O [DPD, maltol]
Prevention / recurrence of clinical diabetes (in words) [1]: no recurrence of the disease; also recorded: prevented clinical diabetes completely; also recorded: prevents the onset of clinical diabetes
Diabetes (pancreatic islets; Table 2, individual DPD-treated NOD mice): -
Mild histopathological changes, share of examined islets (pancreatic islets; group of DPD-treated NOD mice): 30%
Moderate histopathological changes, share of examined islets (pancreatic islets; group of DPD-treated NOD mice): 22%
No insulitis, share of examined islets (pancreatic islets; group of DPD-treated NOD mice): 15%
Severe insulitis, share of examined islets (pancreatic islets; group of DPD-treated NOD mice, untreated diabetic 35%): about 19%
Severe beta cell necrosis, share of examined islets (pancreatic islets; group of DPD-treated NOD mice, untreated diabetic 64%): approximately 14%
Beta Cell Necrosis, islets affected / islets examined (pancreatic islets; [3]): 5/31 and 5/32 and 3/28 and 4/32
Beta Cell Necrosis, percent of islets (pancreatic islets; [3]): 16% and 11% and 13%
Intact Islet, islets / islets examined (pancreatic islets; [3]): 4/31 and 5/32 and 4/28
Intact Islet, percent of islets (pancreatic islets; [3]): 19% and 15% and 14% and 13%
Mild Insulitis, islets affected / islets examined (pancreatic islets; [3]): 9/31 and 8/32 and 11/28 and 10/31 and 9/32
Mild Insulitis, percent of islets (pancreatic islets; [3]): 29% and 25% and 39% and 33% and 28%
Moderate Insulitis, islets affected / islets examined (pancreatic islets; [3]): 7/31 and 8/32 and 5/28 and 6/31
Moderate Insulitis, percent of islets (pancreatic islets; [3]): 23% and 25% and 18% and 19%
Severe Insulitis, islets affected / islets examined (pancreatic islets; [3]): 6/31 and 6/32 and 5/28
Severe Insulitis, percent of islets (pancreatic islets; [3]): 19% and 18%
Blood Glucose ([2]; DPD 1.18% (w/v) in PBS oral daily, 4 to 14 weeks of age, 60 minutes after i.p. 2 mg glucose/gm, PBS control 389 ± 23): 349 ± 42 mg/dL
Effect on control of blood glucose levels (in words) ([2]; GK rats): some reduction of blood glucose levels
Moderate Destruction of beta cells, islets / islets examined (pancreatic beta cells; [4]): 4/16 and 5/17 and 3/18 and 4/19
Moderate Destruction of beta cells, percent of islets (pancreatic beta cells; [4]): 25% and 29% and 17% and 21%
Diabetes (pancreatic beta cells; Table 3, individual DPD-treated NOD mice): -
Destruction of pancreatic beta cells (in words) (pancreatic beta cells; compared to untreated, diabetic NOD mice): significantly lower
Mild destruction, share of examined islets (pancreatic beta cells; group of DPD-treated NOD mice): 45%
Moderate destruction, share of examined islets (pancreatic beta cells; group of DPD-treated NOD mice): 23%
No destruction, share of examined islets (pancreatic beta cells; group of DPD-treated NOD mice): 12%
Severe destruction, share of examined islets (pancreatic beta cells; group of DPD-treated NOD mice): 20%
Mild Destruction of beta cells, islets / islets examined (pancreatic beta cells; [5]): 7/16 and 7/17 and 9/18 and 9/19
Mild Destruction of beta cells, percent of islets (pancreatic beta cells; [5]): 43% and 41% and 50% and 47%
Intact, islets / islets examined (pancreatic beta cells; [6]): 2/16 and 2/17 and 2/18 and 2/19
Intact, percent of islets (pancreatic beta cells; [6]): 13% and 12% and 11%
Severe Destruction of beta cells, islets / islets examined (pancreatic beta cells; [7]): 3/16 and 3/17 and 4/18 and 4/19
Severe Destruction of beta cells, percent of islets (pancreatic beta cells; [7]): 19% and 18% and 22% and 21%
